From patent US20250019382A1, “NOVEL INHIBITORS OF CYCLIN-DEPENDENT KINASES” (Origenis Gmbh, priority 2021, published 2025)

What was measured:
CDK9/CyclinT1 = biological target: T1, CDK9/CyclinT1 (Homo sapiens, UniProt P50750); test: CDK9/T1 ADPGlo kinase assay; format: biochemical; details: CDK9/CyclinT1 6 nM, ATP 10 microM, PDKtide 40 microM, 120 min RT
T1 construct: purchased ProQinase/Reaction Biology, USA #0371-0345-1
How it was run: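 Human CDK9/CyclinT1 (6 nM final) was preincubated 10 min with compound (12-point 1:3 series from 5 μM), then reacted 120 min at RT with PDKtide (40 μM final) and ATP (10 μM final). ADP was read by ADP-Glo luminescence; IC50 from variable-slope sigmoidal fit.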

CDK2/cyclin A1 [1] = biological target: T2, CDK2/cyclin A1 (Homo sapiens, UniProt P24941); test: CDK2/cyclin A1 LanthaScreen (SelectScreen); format: binding; details: first list; duplicate, averaged
T2 construct: purchased Invitrogen Ltd., Paisley, UK (SelectScreen service)
Description: (§1) The CDK2 inhibitory activity of the compounds of the invention was measured in combination with different […] and assay systems. The SelectScreen™ assessment of the kinase inhibitory activity of CDK2 data point was performed in duplicate and averaged data is reported here. The SelectScreen™ kinase inhibitor assay service was used (Invitrogen Ltd., Paisley, UK) to investigate the ability of the compounds of the invention to inhibit CDK2 in dose dependent manner using ten inhibitor concentrations from 10 micromolar down to […] in half-logarithmic steps. The inhibitor concentration was plotted against the percent inhibition or displacement to determine the IC50 using XLFit 5.5 (IDBS, Guildford) to fit to a sigmoidal dose response curve with a variable slope.

CDK2/cyclin A = biological target: T3, CDK2/cyclin A (Homo sapiens, UniProt P24941); test: CDK2/cyclin A Z'-LYTE (SelectScreen); format: biochemical; details: duplicate, averaged
T3 construct: purchased Invitrogen Ltd., Paisley, UK (SelectScreen service)
Description: as §1

CDK2/cyclin E1 = biological target: T4, CDK2/cyclin E1 (Homo sapiens, UniProt P24941); test: CDK2/cyclin E1 LanthaScreen (SelectScreen); format: binding; details: duplicate, averaged
T4 construct: purchased Invitrogen Ltd., Paisley, UK (SelectScreen service)
Description: as §1

CDK2/cyclin A1 [2] = biological target: T2, CDK2/cyclin A1; test: CDK2/cyclin A1 LanthaScreen (SelectScreen), second list; format: binding; details: second list under the same heading; duplicate, averaged
Description: as §1

T1 sequence (P50750 whole entry): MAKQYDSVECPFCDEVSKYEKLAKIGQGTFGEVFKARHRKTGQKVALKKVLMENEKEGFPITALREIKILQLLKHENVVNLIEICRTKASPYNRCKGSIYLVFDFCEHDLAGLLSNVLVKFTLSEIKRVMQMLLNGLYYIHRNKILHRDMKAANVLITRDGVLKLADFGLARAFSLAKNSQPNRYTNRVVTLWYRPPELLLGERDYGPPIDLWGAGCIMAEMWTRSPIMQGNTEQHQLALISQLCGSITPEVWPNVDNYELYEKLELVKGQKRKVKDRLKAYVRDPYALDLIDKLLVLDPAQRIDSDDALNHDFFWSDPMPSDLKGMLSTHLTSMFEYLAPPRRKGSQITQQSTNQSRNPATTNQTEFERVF
T1 sequence (O60563 whole entry partner): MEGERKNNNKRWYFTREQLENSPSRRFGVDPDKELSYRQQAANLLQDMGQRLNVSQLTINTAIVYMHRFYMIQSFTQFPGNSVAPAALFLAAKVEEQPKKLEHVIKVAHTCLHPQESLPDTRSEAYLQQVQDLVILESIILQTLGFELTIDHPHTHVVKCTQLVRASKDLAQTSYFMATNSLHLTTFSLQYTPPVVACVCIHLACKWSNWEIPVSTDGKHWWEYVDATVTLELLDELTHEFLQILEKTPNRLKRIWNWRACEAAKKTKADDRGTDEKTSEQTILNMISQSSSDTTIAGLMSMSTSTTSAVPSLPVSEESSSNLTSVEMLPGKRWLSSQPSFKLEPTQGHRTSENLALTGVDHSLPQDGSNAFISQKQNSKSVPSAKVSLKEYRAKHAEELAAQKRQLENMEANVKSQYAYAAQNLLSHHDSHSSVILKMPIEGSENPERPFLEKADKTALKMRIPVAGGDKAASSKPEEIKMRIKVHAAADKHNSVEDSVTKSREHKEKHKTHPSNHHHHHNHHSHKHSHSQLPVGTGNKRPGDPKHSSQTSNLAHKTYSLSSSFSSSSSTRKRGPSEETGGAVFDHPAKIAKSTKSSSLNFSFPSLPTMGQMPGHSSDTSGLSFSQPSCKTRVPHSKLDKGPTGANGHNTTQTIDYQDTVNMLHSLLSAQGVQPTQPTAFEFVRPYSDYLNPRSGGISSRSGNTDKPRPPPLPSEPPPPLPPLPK

SMILES: Fc1cccc(F)c1-c1nc(N[C@H]2CC[C@H](N3CCCCC3)CC2)n2ncc(Cl)c2n1 [Example #110, 8-chloro-2-(2,6-difluorophenyl)-N-((1r,4r)-4-(piperidin-1-yl)cyclohexyl)pyrazolo[1,5-a][1,3,5]triazin-4-amine]
- IC50 (CDK9/CyclinT1): < 20 nM
- IC50 (CDK2/cyclin A1 [1]): < 200 nM
- IC50 (CDK2/cyclin A): < 1000 nM
- IC50 (CDK2/cyclin E1): < 200 nM
- IC50 (CDK2/cyclin A1 [2]): < 200 nM

SMILES: CN(C)[C@H]1CC[C@H](Nc2nc(-c3c(F)cccc3F)nc3c(Cl)cnn23)CC1 [Example #109, (1r,4r)-N1-(8-chloro-2-(2,6-difluorophenyl)pyrazolo[1,5-a][1,3,5]triazin-4-yl)-N4,N4-dimethylcyclohexane-1,4-diamine]
- IC50 (CDK9/CyclinT1): < 20 nM
- IC50 (CDK2/cyclin A1 [1]): < 1000 nM
- IC50 (CDK2/cyclin A): < 1000 nM
- IC50 (CDK2/cyclin E1): < 200 nM
- IC50 (CDK2/cyclin A1 [2]): < 200 nM

SMILES: N[C@H]1CC[C@H](Nc2nc(-c3c(F)cccc3F)nc3c(Cl)cnn23)CC1 [Example #108, (1r,4r)-N1-(8-chloro-2-(2,6-difluorophenyl)pyrazolo[1,5-a][1,3,5]triazin-4-yl)cyclohexane-1,4-diamine]
- IC50 (CDK9/CyclinT1): < 20 nM
- IC50 (CDK2/cyclin A1 [1]): < 200 nM
- IC50 (CDK2/cyclin A): < 200 nM
- IC50 (CDK2/cyclin E1): < 200 nM
- IC50 (CDK2/cyclin A1 [2]): < 20 nM

SMILES: Fc1cccc(F)c1-c1nc(N[C@H]2CC[C@H](N3CCOCC3)CC2)n2ncc(Cl)c2n1 [Example #89, 8-chloro-2-(2,6-difluorophenyl)-N-((1r,4r)-4-morpholinocyclohexyl)pyrazolo[1,5-a][1,3,5]triazin-4-amine]
- IC50 (CDK9/CyclinT1): < 20 nM
- IC50 (CDK2/cyclin A1 [1]): < 1000 nM
- IC50 (CDK2/cyclin A): < 1000 nM
- IC50 (CDK2/cyclin E1): < 200 nM
- IC50 (CDK2/cyclin A1 [2]): < 200 nM
